In ChEMBL document CHEMBL1135191, “Novel cyclourethane-derived HIV protease inhibitors: a ring-closing olefin metathesis based strategy” (Bioorg Med Chem Lett, 2002):

The compounds below were run against Human immunodeficiency virus type 1 protease (Human immunodeficiency virus 1) (UniProt Q72874). Conditions: not given.

ID50 [nM]	Structure (SMILES)
18	CC(C)(C)NC(=O)[C@@H]1C[C@@H]2CCCC[C@@H]2CN1C[C@@H](O)[C@H](Cc1ccccc1)NC(=O)[C@H](CC(N)=O)NC(=O)c1ccc2ccccc2n1

The compounds below were run against Human immunodeficiency virus type 1 protease (Human immunodeficiency virus 1, UniProt Q72874) (assay: Compound was tested for its inhibitory potency against human immunodeficiency virus -1 (HIV-1 protease)). Conditions: not given.

Ki [nM]	Structure (SMILES)
167	O=C(NC(Cc1ccccc1)C(O)CN1CCCCCCCCC/C=C/CC(c2ccccc2)OC1=O)O[C@H]1CO[C@H]2OCC[C@H]21 (some centres not stated)
0.015	COc1ccc(S(=O)(=O)N(CC(C)C)CC(O)C(Cc2ccccc2)NC(=O)O[C@H]2CO[C@H]3OCC[C@H]32)cc1 (some centres not stated)
80	O=C(NC(Cc1ccccc1)C(O)CN1CCCCCCCCCCCOC1=O)O[C@H]1CO[C@H]2OCC[C@H]21 (some centres not stated)
229	O=C(NC(Cc1ccccc1)C(O)CN1C/C=C\CCCCCCCC(c2ccccc2)OC1=O)O[C@H]1CO[C@H]2OCC[C@H]21 (some centres not stated)
> 1000	C=CCCCCCCCCOC(=O)N(CC=C)CC(O)C(Cc1ccccc1)NC(=O)O[C@H]1CO[C@H]2OCC[C@H]21 (some centres not stated)
> 1000	C=CCCCCCCCCOC(=O)N(CC(O)C(Cc1ccccc1)NC(=O)O[C@H]1CO[C@H]2OCC[C@H]21)C(C)CC=C (some centres not stated)
444	C=CCCCCCCC(OC(=O)N(CCCCC=C)CC(O)C(Cc1ccccc1)NC(=O)O[C@H]1CO[C@H]2OCC[C@H]21)c1ccccc1 (some centres not stated)
88	O=C(NC(Cc1ccccc1)C(O)CN1CCCCCCCCC/C=C/CCOC1=O)O[C@H]1CO[C@H]2OCC[C@H]21 (some centres not stated)
6.1	CC1CCCCCCCCCCOC(=O)N(CC(O)C(Cc2ccccc2)NC(=O)O[C@H]2CO[C@H]3OCC[C@H]32)C1 (some centres not stated)
2	CC(C)(C)NC(=O)[C@@H]1C[C@@H]2CCCC[C@@H]2CN1CC(O)C(Cc1ccccc1)NC(=O)O[C@H]1CO[C@H]2OCC[C@H]21 (some centres not stated)
14	O=C(NC(Cc1ccccc1)C(O)CN1CCCCCCCCCCCCOC1=O)O[C@H]1CO[C@H]2OCC[C@H]21 (some centres not stated)
162	O=C(NC(Cc1ccccc1)C(O)CN1CCCC/C=C/CCCCCCC(c2ccccc2)OC1=O)O[C@H]1CO[C@H]2OCC[C@H]21 (some centres not stated)
268	O=C(NC(Cc1ccccc1)C(O)CN1CCCCCCCCCCCCC(c2ccccc2)OC1=O)O[C@H]1CO[C@H]2OCC[C@H]21 (some centres not stated)
> 1000	C=CCCCCCCCCN(CC(O)C(Cc1ccccc1)NC(=O)O[C@H]1CO[C@H]2OCC[C@H]21)C(=O)OC(CC=C)c1ccccc1 (some centres not stated)
30	CC1CCCCCCCCCCCOC(=O)N1CC(O)C(Cc1ccccc1)NC(=O)O[C@H]1CO[C@H]2OCC[C@H]21 (some centres not stated)
11	CC1C/C=C/CCCCCCCCOC(=O)N(CC(O)C(Cc2ccccc2)NC(=O)O[C@H]2CO[C@H]3OCC[C@H]32)C1 (some centres not stated)
125	O=C(NC(Cc1ccccc1)C(O)CN1C/C=C\CCCCCCCCOC1=O)O[C@H]1CO[C@H]2OCC[C@H]21 (some centres not stated)
53	CC1C/C=C\CCCCCCCCCOC(=O)N1CC(O)C(Cc1ccccc1)NC(=O)O[C@H]1CO[C@H]2OCC[C@H]21 (some centres not stated)
> 1000	C=CCCCCCCCCN(CC(O)C(Cc1ccccc1)NC(=O)O[C@H]1CO[C@H]2OCC[C@H]21)C(=O)OCCC=C (some centres not stated)
189	O=C(NC(Cc1ccccc1)C(O)CN1CCCCCCCCCCC(c2ccccc2)OC1=O)O[C@H]1CO[C@H]2OCC[C@H]21 (some centres not stated)
> 1000	C=CCCCCCCCOC(=O)N(CC(C)CC=C)CC(O)C(Cc1ccccc1)NC(=O)O[C@H]1CO[C@H]2OCC[C@H]21 (some centres not stated)
357	O=C(NC(Cc1ccccc1)C(O)CN1CCCCCCCCCCCC(c2ccccc2)OC1=O)O[C@H]1CO[C@H]2OCC[C@H]21 (some centres not stated)
> 1000	C=CCCCCCCCC(OC(=O)N(CC=C)CC(O)C(Cc1ccccc1)NC(=O)O[C@H]1CO[C@H]2OCC[C@H]21)c1ccccc1 (some centres not stated)

Each compound was assayed on Human immunodeficiency virus 1 (assay: Compound was tested for its antiviral potency against human immunodeficiency virus type 1). Conditions: read-out: ID50 (the source's name).
Format: functional

IC50 [nM]	Structure (SMILES)
1.4	COc1ccc(S(=O)(=O)N(CC(C)C)CC(O)C(Cc2ccccc2)NC(=O)O[C@H]2CO[C@H]3OCC[C@H]32)cc1 (some centres not stated)
50	CC(C)(C)NC(=O)[C@@H]1C[C@@H]2CCCC[C@@H]2CN1CC(O)C(Cc1ccccc1)NC(=O)O[C@H]1CO[C@H]2OCC[C@H]21 (some centres not stated)

These compounds were tested on MT4 (assay: Inhibitory activity against HIV-1 virus in MT-4 human T-lymphoid cells). Conditions: read-out: ID50 (the source's name).
Format: functional

Structure (SMILES)	IC50 [nM]
CC1CCCCCCCCCCOC(=O)N(CC(O)C(Cc2ccccc2)NC(=O)O[C@H]2CO[C@H]3OCC[C@H]32)C1 (some centres not stated)	2500
